The values that follow are results of earlier work, collected in patent publication US20200289552A1, “SOLID COMPOSITION COMPRISING IODINE AGENT AND SODIUM CHLORIDE HAVING IMPROVED WATER SOLUBILITY, AND ANTIVIRAL AND ANTIMICROBIAL COMPOSITION FOR EYE, ORAL CAVITY, NASAL CAVITY OR INHALATION CONTAINING AQUEOUS SOLUTION THEREOF” (FLUCHEM LTD, priority 2017, published 2020).

For data set [1] the following is noted: stored sealed, room temperature and 65° C., for 3 years.
For data set [2] the following is noted: U.S. patent Ser. No. 04/950,653.
In data set [3] the test system is highly pathogenic H5N1 and low pathogenic H5N3, H7N7, and H9N7.

povidone iodine: the effective iodine loss entry in data set [1] is reported as “about 0.5%”. Besides, the “time to dissolve in water” value in data set [2] is 45 min. Further, the “time to inactivate viruses below a detection limit” value in data set [3] was “less than 10 seconds”.
